{"source": "patent US11241440B2", "about": "“Dihydrooxadiazine compounds for treating infections and cancer” (VALORALIA I MÁS D, SL, priority 2016, dated 2022); for Characteristics of the strains: susceptibility class: key: I = intermediate activity; S = susceptibility; R = Resistance", "key": {"A. terreus": {"tested_on": "A. terreus", "settings": "A. terreus ATe-001; cited from earlier work"}, "S. prolificans": {"tested_on": "S. prolificans", "settings": "S. prolificans SP-003; cited from earlier work"}, "Aspergillus terreus": {"tested_on": "Aspergillus terreus", "test": "EUCAST broth dilution antifungal susceptibility test (MIC)", "type": "cell-based", "settings": "100% inhibition, 24 hours at 35° C., dilution range 64 to 0.12 mg/l", "experimental": "(§1) Filamentous fungi and yeasts strains, from clinical origin, were supplied by Microbiology Service from The Princess Hospital, Madrid. They are detailed in Table III. Filamentous fungi and yeast cells suspensions in distilled water was prepared from a culture of 24-48 h, depending on species, in Sabouraud agar. Each suspension was adjusted to a fixed size inoculum of 1-5×10^8 CFU/ml with a spectrophotometer (Ferraro, M J National Committee for Clinical Laboratory Standards. 2000). Antifungal susceptibility tests were developed following the standardized methodology detailed by the European Committee on Antimicrobial Susceptibility Testing (EUCAST) documents 7.2 (method for the determination of broth dilution minimum inhibitory concentrations of antifungal agents for yeasts EDef 7.2) and 9.2 (Method for the determination of broth dilution minimum inhibitory concentrations of antifungal agents for conidia forming foulds). The compound was dissolved in DMSO and diluted with RPMI plates with 2% glucose to pH 7 with MOPS buffer. […] Plates were inoculated with a yeast suspension or filamentous fungal spores (1-5×10^5 cls/ml). The results were evaluated after 24 hours incubation at 35° C. and absorbance reading at 530 nm."}, "Aspergillus flavus": {"tested_on": "Aspergillus flavus", "test": "EUCAST broth dilution antifungal susceptibility test (MIC)", "type": "cell-based", "settings": "100% inhibition, 24 hours at 35° C., dilution range 64 to 0.12 mg/l", "experimental": "as §1"}, "Aspergillus fumigatus": {"tested_on": "Aspergillus fumigatus", "test": "EUCAST broth dilution antifungal susceptibility test (MIC)", "type": "cell-based", "settings": "100% inhibition, 24 hours at 35° C., dilution range 64 to 0.12 mg/l", "experimental": "as §1"}, "Scedosporium prolificans": {"tested_on": "Scedosporium prolificans", "test": "EUCAST broth dilution antifungal susceptibility test (MIC)", "type": "cell-based", "settings": "100% inhibition, 24 hours at 35° C., dilution range 64 to 0.12 mg/l", "experimental": "as §1"}, "A. flavus": {"tested_on": "A. flavus", "settings": "A. flavus AF-001; cited from earlier work"}, "A. fumigatus": {"tested_on": "A. fumigatus", "settings": "A. fumigatus AFu-001; cited from earlier work"}, "C. parapsilosis": {"tested_on": "C. parapsilosis", "settings": "C. parapsilosis CP-007; cited from earlier work"}, "[1]": {"tested_on": "equine herpes virus type 1 (EHV-1)", "test": "Viral titer reduction", "type": "cell-based", "settings": "10 μg/ml"}, "M. abscessus": {"tested_on": "M. abscessus", "test": "Kirby-Bauer disk diffusion susceptibility test", "type": "cell-based, Mycobacterium abscessus", "settings": "M. abscessus strain 690, isolation year 2012"}, "M. chelonae": {"tested_on": "M. chelonae", "test": "Kirby-Bauer disk diffusion susceptibility test", "type": "cell-based", "settings": "M. chelonae strain 870, isolation year 2011"}, "T. pulmonis": {"tested_on": "T. pulmonis", "test": "Kirby-Bauer disk diffusion susceptibility test", "type": "cell-based, Tsukamurella pulmonis"}, "N. cyriacigeorgica": {"tested_on": "N. cyriacigeorgica", "test": "Kirby-Bauer disk diffusion susceptibility test", "type": "cell-based"}, "M. fortuitum": {"tested_on": "M. fortuitum", "test": "Kirby-Bauer disk diffusion susceptibility test", "type": "cell-based", "settings": "M. fortuitum strain 1080, isolation year 2011"}, "A. baumannii": {"tested_on": "A. baumannii", "test": "Kirby-Bauer disk diffusion susceptibility test", "type": "cell-based, Acinetobacter baumannii"}, "N. carnea": {"tested_on": "N. carnea", "test": "Kirby-Bauer disk diffusion susceptibility test", "type": "cell-based, Nocardia carnea"}}}
{"smiles": "C[C@@H]1[C@H](O)[C@@H](C)/C=C/C=C/C=C/C=C/C=C/C=C/C=C/[C@H](O[C@@H]2O[C@H](C)[C@@H](O)[C@H](N)[C@@H]2O)C[C@@H]2O[C@](O)(C[C@@H](O)C[C@@H](O)[C@H](O)CC[C@@H](O)C[C@@H](O)CC(=O)O[C@H]1C)C[C@H](O)[C@H]2C(=O)O", "note": "[Amphotericin B]", "values": [{"measurement": "Characteristics of the strains: susceptibility class", "setting": "A. terreus", "value": "I"}, {"measurement": "Characteristics of the strains: susceptibility class", "setting": "S. prolificans", "value": "R"}, {"measurement": "MIC (minimum inhibitory concentration)", "setting": "Aspergillus terreus", "value": 2}, {"measurement": "MIC (minimum inhibitory concentration)", "setting": "Aspergillus flavus", "value": 1}, {"measurement": "MIC (minimum inhibitory concentration)", "setting": "Aspergillus fumigatus", "value": 0.5}, {"measurement": "MIC (minimum inhibitory concentration)", "setting": "Scedosporium prolificans", "value": ">16"}, {"measurement": "Characteristics of the strains: susceptibility class", "setting": "A. flavus", "value": "I"}, {"measurement": "Characteristics of the strains: susceptibility class", "setting": "A. fumigatus", "value": "S"}, {"measurement": "Characteristics of the strains: susceptibility class", "setting": "C. parapsilosis", "value": "I"}]}
{"smiles": "Clc1ccccc1C(c1ccccc1)(c1ccccc1)n1ccnc1", "note": "[Clotrimazole]", "values": [{"measurement": "Characteristics of the strains: susceptibility class", "setting": "A. terreus", "value": "S"}, {"measurement": "Characteristics of the strains: susceptibility class", "setting": "A. flavus", "value": "S"}, {"measurement": "Characteristics of the strains: susceptibility class", "setting": "A. fumigatus", "value": "S"}, {"measurement": "Characteristics of the strains: susceptibility class", "setting": "C. parapsilosis", "value": "S"}]}
{"smiles": "OC(Cn1cncn1)(Cn1cncn1)c1ccc(F)cc1F", "note": "[Fluconazole]", "values": [{"measurement": "Characteristics of the strains: susceptibility class", "setting": "A. terreus", "value": "R"}, {"measurement": "Characteristics of the strains: susceptibility class", "setting": "A. flavus", "value": "R"}, {"measurement": "Characteristics of the strains: susceptibility class", "setting": "A. fumigatus", "value": "R"}, {"measurement": "Characteristics of the strains: susceptibility class", "setting": "C. parapsilosis", "value": "S"}]}
{"smiles": "Nc1nc(O)c2ncn(COC(CO)CO)c2n1", "note": "[GCV, ganciclovir]", "values": [{"measurement": "reduction of the titer (inhibition)", "setting": "[1]", "value": 1.8, "unit": "logarithms"}]}
{"smiles": "C[C@@H](O)[C@H]1C(=O)N2C(C(=O)O)=C(SCCN=CN)C[C@H]12", "note": "[IMP, Imipenem]", "values": [{"measurement": "Characteristics of strains: susceptibility or resistance", "setting": "M. abscessus", "value": "R"}, {"measurement": "Characteristics of strains: susceptibility or resistance", "setting": "M. chelonae", "value": "R"}, {"measurement": "Characteristics of strains: susceptibility or resistance", "setting": "T. pulmonis; T. pulmonis strain 40, isolation year 2015", "value": "S"}, {"measurement": "Characteristics of strains: susceptibility or resistance", "setting": "T. pulmonis; T. pulmonis strain 1991, isolation year 2009", "value": "S"}, {"measurement": "Characteristics of strains: susceptibility or resistance", "setting": "N. cyriacigeorgica; N. cyriacigeorgica strain 30, isolation year 2005", "value": "S"}, {"measurement": "Characteristics of strains: susceptibility or resistance", "setting": "N. cyriacigeorgica; N. cyriacigeorgica strain 199, isolation year 2005", "value": "R"}, {"measurement": "Characteristics of strains: susceptibility or resistance", "setting": "M. fortuitum", "value": "R"}, {"measurement": "Characteristics of strains: susceptibility or resistance", "setting": "A. baumannii; A. baumannii strain 300, isolation year 2001", "value": "R"}, {"measurement": "Characteristics of strains: susceptibility or resistance", "setting": "A. baumannii; A. baumannii strain 1301, isolation year 2009", "value": "S"}, {"measurement": "Characteristics of strains: susceptibility or resistance", "setting": "N. carnea; N. carnea strain 40, isolation year 2011", "value": "R"}, {"measurement": "Characteristics of strains: susceptibility or resistance", "setting": "N. carnea; N. carnea strain 769, isolation year 2009", "value": "S"}]}
{"smiles": "CC(=O)N1CCN(c2ccc(OCC3COC(Cn4ccnc4)(c4ccc(Cl)cc4Cl)O3)cc2)CC1", "note": "(centres unmarked) [Ketoconazole]", "values": [{"measurement": "Characteristics of the strains: susceptibility class", "setting": "A. terreus", "value": "S"}, {"measurement": "Characteristics of the strains: susceptibility class", "setting": "A. flavus", "value": "S"}, {"measurement": "Characteristics of the strains: susceptibility class", "setting": "A. fumigatus", "value": "S"}, {"measurement": "Characteristics of the strains: susceptibility class", "setting": "C. parapsilosis", "value": "S"}]}
{"smiles": "C[C@@H](c1ncncc1F)[C@](O)(Cn1cncn1)c1ccc(F)cc1F", "note": "[Voriconazole]", "values": [{"measurement": "Characteristics of the strains: susceptibility class", "setting": "S. prolificans", "value": "R"}, {"measurement": "MIC (minimum inhibitory concentration)", "setting": "Aspergillus terreus", "value": 0.5}, {"measurement": "MIC (minimum inhibitory concentration)", "setting": "Aspergillus flavus", "value": 1}, {"measurement": "MIC (minimum inhibitory concentration)", "setting": "Aspergillus fumigatus", "value": 0.5}, {"measurement": "MIC (minimum inhibitory concentration)", "setting": "Scedosporium prolificans", "value": ">8"}]}
